In patent US4353923A, “Pharmaceutical composition containing a benzofurancarboxamide derivative as the active ingredient” (Kyowa Hakko Kogyo Co., Ltd., priority 1980, dated 1982):

What was measured:
male dd mice [1] = experiment: Muscle relaxant activity: traction test; assay type: in vivo; settings: 5 mice per group
Excerpt: (§1) In this example, 5 male dd mice weighing 20±1 g were used as one group. Prior to the experiments, mice were placed on the rod having a diameter of 3 cm and rotating at 5 r.p.m. in the reverse direction of the rotation. […] The drugs were orally administered and the muscle relaxant activity with the passage of time was examined by the following tests.
Traction test: Forefeet of the same mouse were placed on a wire to observe whether it falls or not.
(§2) In each test, the drug was considered to have a muscle relaxant activity when the mouse fell.

male dd mice [2] = experiment: Anticonvulsant activity: maximal electroshock convulsion test; assay type: in vivo; settings: Mus musculus, po, 1 h, 60 min after administration, read-out: Maximal electroshock convulsion test, inhibition ratio; for responders at 25 mg/kg: 25 mg/kg p.o.; for responders at 50 mg/kg: 50 mg/kg p.o.; for responders at 75 mg/kg: 75 mg/kg p.o.; for responders at 100 mg/kg: 100 mg/kg p.o.
Excerpt: Anticonvulsant activity was examined according to maximal electroshock convulsion test.
In this experiment, 10 male dd mice weighing 23±1 g were used as one group. Each drug was orally administered to the animals. Sixty minutes after the administration, an electric current (2000 V, 50 mA) was applied to both eyes of the mouse for 0.2 second. Drug activity was judged according to whether tonic extensor seizures were observed or not.

male Wistar rats = experiment: Anti-inflammatory activity: carrageenin edema method; assay type: in vivo; settings: Rattus norvegicus, po, 3 hours after carrageenin, read-out: Inhibition ratio (paw swelling, vs control); for inhibition in vivo at 150 mg/kg: 150 mg/kg p.o.
Procedure: In this experiment, 5 male Wistar rats weighing 140±10 g were used as one group. Sixty minutes after oral administration of each drug to each animal, 0.1 ml of a 1% carrageenin solution as a phlogistic agent was injected into the plantar surface of the right hind paw of the animal to induce inflammation. The volume of the paw was measured before and 3 hours after the injection of the phlogistic agent. Swelling ratio and inhibition ratio in comparison with control group were calculated.

male dd mice [3] = experiment: Analgesic activity: acetic acid writhing; assay type: in vivo; settings: Mus musculus, po, 1 h, acetic acid i.p. after 60 min, read-out: Inhibition ratio (writhes, vs control); for inhibition in vivo at 50 mg/kg: 50 mg/kg p.o.; for inhibition in vivo at 150 mg/kg: 150 mg/kg p.o.
Procedure: In this experiment, 10 male dd mice weighing 20±1 g were used as one group for examination of analgesic activity. Sixty minutes after oral administration of each drug to each animal, 0.2 ml of a 0.7% acetic acid solution was intraperitoneally administered to the animal. Starting 10 minutes after the administration of acetic acid, the number of writhes occurred in 10 minutes was counted. Average number of writhes and inhibition ratio in comparison with control group were calculated.

male dd mice [4] = experiment: Muscle relaxant activity: rotating rod test; assay type: in vivo; settings: 5 mice per group
Procedure: as §1
Rotating rod test: The same mouse was placed on the rotating rod to observe whether it falls or not within 2 minutes.
as §2

male dd mice [5] = experiment: Muscle relaxant activity: slant test; assay type: in vivo; settings: 5 mice per group
Procedure: as §1
Slant test: Each mouse was placed on a wire net inclined at an angle of 45° to observe whether it falls or not.
as §2

in vivo = settings: mouse, po, mice, deaths counted for 7 days
Procedure: In this example, 3-7 male dd mice weighing 20±1 g were used as one group. Each drug was suspended in a 0.3% CMC solution and orally administered. After the administration, number of dead animals was counted for 7 days to determine LD50 value. As the reference drugs, mepirizole and benzydamine hydrochloride were dissolved in water and orally administered. The drugs and the reference drugs were also administered in the same manner as above in Examples 2-5.

Structure (SMILES): Cc1c(C(=O)N(C)C)oc2cc(Cl)ccc12 [Compound (B), 6-Chloro-N,N,3-trimethyl-benzo[b]furan-2-carboxamide]
- Number of dropped mice, traction test (male dd mice [1]; 75 mg/kg p.o., 1 hr): 3 mice
- Number of dropped mice, traction test (male dd mice [1]; 75 mg/kg p.o., 2 hr): 4 mice
- Number of dropped mice, traction test (male dd mice [1]; 75 mg/kg p.o., 3 hr): 2 mice
- Number of dropped mice, traction test (male dd mice [1]; 150 mg/kg p.o., 1 hr): 5 mice
- Number of dropped mice, traction test (male dd mice [1]; 150 mg/kg p.o., 2 hr): 5 mice
- Number of dropped mice, traction test (male dd mice [1]; 150 mg/kg p.o., 3 hr): 5 mice
- responders at 25 mg/kg (male dd mice [2]): 0%
- responders at 50 mg/kg (male dd mice [2]): 40%
- responders at 75 mg/kg (male dd mice [2]): 60%
- inhibition in vivo at 150 mg/kg (male Wistar rats): 39.8%
- inhibition in vivo at 50 mg/kg (male dd mice [3]): 34.9%
- inhibition in vivo at 150 mg/kg (male dd mice [3]): 95.4%
- Number of dropped mice, rotating rod test (male dd mice [4]; 75 mg/kg p.o., 1 hr): 5 mice
- Number of dropped mice, rotating rod test (male dd mice [4]; 75 mg/kg p.o., 2 hr): 4 mice
- Number of dropped mice, rotating rod test (male dd mice [4]; 75 mg/kg p.o., 3 hr): 4 mice
- Number of dropped mice, rotating rod test (male dd mice [4]; 150 mg/kg p.o., 1 hr): 5 mice
- Number of dropped mice, rotating rod test (male dd mice [4]; 150 mg/kg p.o., 2 hr): 5 mice
- Number of dropped mice, rotating rod test (male dd mice [4]; 150 mg/kg p.o., 3 hr): 5 mice
- Number of dropped mice, slant test (male dd mice [5]; 300 mg/kg p.o., 1 hr): 5 mice
- Number of dropped mice, slant test (male dd mice [5]; 300 mg/kg p.o., 2 hr): 5 mice
- Number of dropped mice, slant test (male dd mice [5]; 300 mg/kg p.o., 3 hr): 5 mice
- LD50 at 168 h (in vivo): 500 to 1000 mg/kg

Structure (SMILES): Cc1c(C(=O)N(C)C)oc2c(Cl)cccc12 [Compound (C), 7-chloro-N,N,3-trimethylbenzo[b]furan-2-carboxamide]
- Number of dropped mice, traction test (male dd mice [1]; 25 mg/kg p.o., 1 hr): 0 mice
- Number of dropped mice, traction test (male dd mice [1]; 25 mg/kg p.o., 2 hr): 0 mice
- Number of dropped mice, traction test (male dd mice [1]; 25 mg/kg p.o., 3 hr): 0 mice
- Number of dropped mice, traction test (male dd mice [1]; 50 mg/kg p.o., 1 hr): 5 mice
- Number of dropped mice, traction test (male dd mice [1]; 50 mg/kg p.o., 2 hr): 4 mice
- Number of dropped mice, traction test (male dd mice [1]; 50 mg/kg p.o., 3 hr): 1 mice
- Number of dropped mice, traction test (male dd mice [1]; 100 mg/kg p.o., 1 hr): 5 mice
- Number of dropped mice, traction test (male dd mice [1]; 100 mg/kg p.o., 2 hr): 5 mice
- Number of dropped mice, traction test (male dd mice [1]; 100 mg/kg p.o., 3 hr): 5 mice
- responders at 25 mg/kg (male dd mice [2]): 40%
- responders at 50 mg/kg (male dd mice [2]): 66.7%
- responders at 75 mg/kg (male dd mice [2]): 80%
- responders at 100 mg/kg (male dd mice [2]): 100%
- inhibition in vivo at 150 mg/kg (male Wistar rats): 35.1%
- inhibition in vivo at 300 mg/kg (male Wistar rats; 300 mg/kg p.o.): 57.8%
- inhibition in vivo at 50 mg/kg (male dd mice [3]): 85.3%
- inhibition in vivo at 150 mg/kg (male dd mice [3]): 100%
- Number of dropped mice, rotating rod test (male dd mice [4]; 25 mg/kg p.o., 1 hr): 3 mice
- Number of dropped mice, rotating rod test (male dd mice [4]; 25 mg/kg p.o., 2 hr): 1 mice
- Number of dropped mice, rotating rod test (male dd mice [4]; 25 mg/kg p.o., 3 hr): 0 mice
- Number of dropped mice, rotating rod test (male dd mice [4]; 50 mg/kg p.o., 1 hr): 5 mice
- Number of dropped mice, rotating rod test (male dd mice [4]; 50 mg/kg p.o., 2 hr): 5 mice
- Number of dropped mice, rotating rod test (male dd mice [4]; 50 mg/kg p.o., 3 hr): 2 mice
- Number of dropped mice, rotating rod test (male dd mice [4]; 100 mg/kg p.o., 1 hr): 5 mice
- Number of dropped mice, rotating rod test (male dd mice [4]; 100 mg/kg p.o., 2 hr): 5 mice
- Number of dropped mice, rotating rod test (male dd mice [4]; 100 mg/kg p.o., 3 hr): 5 mice
- Number of dropped mice, slant test (male dd mice [5]; 50 mg/kg p.o., 1 hr): 5 mice
- Number of dropped mice, slant test (male dd mice [5]; 50 mg/kg p.o., 2 hr): 4 mice
- Number of dropped mice, slant test (male dd mice [5]; 50 mg/kg p.o., 3 hr): 1 mice
- Number of dropped mice, slant test (male dd mice [5]; 100 mg/kg p.o., 1 hr): 5 mice
- Number of dropped mice, slant test (male dd mice [5]; 100 mg/kg p.o., 2 hr): 5 mice
- Number of dropped mice, slant test (male dd mice [5]; 100 mg/kg p.o., 3 hr): 5 mice
- LD50 at 168 h (in vivo): > 1000 mg/kg

Structure (SMILES): Cc1c(C(=O)N(C)C)oc2ccc(F)cc12 [Compound (D), 5-Fluoro-N,N,3-trimethyl-benzo[b]furan-2-carboxamide]
- Number of dropped mice, traction test (male dd mice [1]; 50 mg/kg p.o., 1 hr): 0 mice
- Number of dropped mice, traction test (male dd mice [1]; 50 mg/kg p.o., 2 hr): 0 mice
- Number of dropped mice, traction test (male dd mice [1]; 50 mg/kg p.o., 3 hr): 0 mice
- Number of dropped mice, traction test (male dd mice [1]; 75 mg/kg p.o., 1 hr): 2 mice
- Number of dropped mice, traction test (male dd mice [1]; 75 mg/kg p.o., 2 hr): 1 mice
- Number of dropped mice, traction test (male dd mice [1]; 75 mg/kg p.o., 3 hr): 0 mice
- Number of dropped mice, traction test (male dd mice [1]; 100 mg/kg p.o., 1 hr): 2 mice
- Number of dropped mice, traction test (male dd mice [1]; 100 mg/kg p.o., 2 hr): 1 mice
- Number of dropped mice, traction test (male dd mice [1]; 100 mg/kg p.o., 3 hr): 0 mice
- Number of dropped mice, traction test (male dd mice [1]; 150 mg/kg p.o., 1 hr): 4 mice
- Number of dropped mice, traction test (male dd mice [1]; 150 mg/kg p.o., 2 hr): 3 mice
- Number of dropped mice, traction test (male dd mice [1]; 150 mg/kg p.o., 3 hr): 2 mice
- responders at 50 mg/kg (male dd mice [2]): 10%
- responders at 75 mg/kg (male dd mice [2]): 40%
- responders at 100 mg/kg (male dd mice [2]): 90%
- inhibition in vivo at 150 mg/kg (male Wistar rats): 34%
- inhibition in vivo at 50 mg/kg (male dd mice [3]): 44.2%
- inhibition in vivo at 150 mg/kg (male dd mice [3]): 95.4%
- Number of dropped mice, rotating rod test (male dd mice [4]; 50 mg/kg p.o., 1 hr): 0 mice
- Number of dropped mice, rotating rod test (male dd mice [4]; 50 mg/kg p.o., 2 hr): 0 mice
- Number of dropped mice, rotating rod test (male dd mice [4]; 50 mg/kg p.o., 3 hr): 0 mice
- Number of dropped mice, rotating rod test (male dd mice [4]; 75 mg/kg p.o., 1 hr): 3 mice
- Number of dropped mice, rotating rod test (male dd mice [4]; 75 mg/kg p.o., 2 hr): 1 mice
- Number of dropped mice, rotating rod test (male dd mice [4]; 75 mg/kg p.o., 3 hr): 0 mice
- Number of dropped mice, rotating rod test (male dd mice [4]; 100 mg/kg p.o., 1 hr): 5 mice
- Number of dropped mice, rotating rod test (male dd mice [4]; 100 mg/kg p.o., 2 hr): 3 mice
- Number of dropped mice, rotating rod test (male dd mice [4]; 100 mg/kg p.o., 3 hr): 1 mice
- Number of dropped mice, rotating rod test (male dd mice [4]; 150 mg/kg p.o., 1 hr): 5 mice
- Number of dropped mice, rotating rod test (male dd mice [4]; 150 mg/kg p.o., 2 hr): 5 mice
- Number of dropped mice, rotating rod test (male dd mice [4]; 150 mg/kg p.o., 3 hr): 3 mice
- Number of dropped mice, slant test (male dd mice [5]; 150 mg/kg p.o., 1 hr): 4 mice
- Number of dropped mice, slant test (male dd mice [5]; 150 mg/kg p.o., 2 hr): 4 mice
- Number of dropped mice, slant test (male dd mice [5]; 150 mg/kg p.o., 3 hr): 1 mice
- LD50 at 168 h (in vivo): 700 to 1000 mg/kg
